Laboratory results as given in patent US20140377340A1, “HLA-DR BINDING PEPTIDES AND THEIR USES” (priority 2007, published 2014).

Tests used:
[1] = target: T1, purified HLA DRB1*0101 (Homo sapiens, UniProt P01903+P01911, A100R/D57E/F55L/F60I/F76Y/I96L/L162R/M171V/P40L/Q125E/R42F/V115G/Y59C); experiment: HLA-DR radioligand binding inhibition assay, DRB1*0101; details: IC50 nM purified HLA DRB1 *0101, purified HLA DRB1*0101
T1 construct: purified from EBV transformed homozygous cell lines or single MHC allele transfected 721.221, C1R, or fibroblast lines; made in house
Outline: (§1)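 First, HLA-DR was purified from lysates on LB3.1 columns. Then 1 μM to 1 nM protein was incubated 2 days with 1-10 nM radiolabeled peptide at pH 4 to 7. Finally, complexes were captured for 3 hours and bound cpm determined.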

[2] = target: T2, purified HLA DRB1*0901 (Homo sapiens, UniProt P01903+P01911, A100R/A103E/D57H/D86V/F55Y/F60I/F76Y/I96F/K127E/L162R/M171V/P40D/Q125H/Q99R/R33Q/R42F/S133A/S66N/T210M/V115G/W38K/Y107V/Y59G/Y89S); experiment: HLA-DR radioligand binding inhibition assay, DRB1*0901; details: IC50 nM purified HLA DRB1 *0901, purified HLA DRB1*0901
T2 construct: purified from EBV transformed homozygous cell lines or single MHC allele transfected 721.221, C1R, or fibroblast lines; made in house
Experimental: (§2) Instead, wells of an opaque white 96-well Optiplate (Packard) are coated with 3 μg (100 μl@ 30 μg/ml) of HLA-specific antibody (Ab) that “capture” complexes of radiolabeled MHC and unlabeled peptide transferred from the molecular binding assay plate in 100 μl of 0.05% NP40/PBS. After a 3-hour incubation period, the supernatant is decanted and scintillation fluid (Microscint 20) added. Captured complexes are then measured on a microplate scintillation and luminescence counter (TopCount NXTTM; Packard).
(§3) HLA-DR purification. Fifteen distinct HLA-DR molecules were used in quantitative assays to measure the binding of peptides to solubilized HLA-DR molecules. […] Briefly, columns of inactivated Sepharose CL4B and Protein A Sepharose were used as pre-columns. HLA-DR molecules were captured by passage of lysates over LB3.1 monoclonal antibody (anti-HLA-DRA) columns. Antibody columns were washed with 10 mM Tris-HCL, pH8.0 with 1% (v/v) NP-40, followed by PBS containing 0.4% (w/v) n-octylglucoside.
(§4) Briefly, 1-10 nM of radiolabeled peptide was co-incubated for 2 days at either room temperature or 37° C. with 1 μM to 1 nM purified HLA-DR molecules in the presence of a cocktail of protease inhibitors. Assays were performed at various pH conditions, ranging from pH 4 to pH 7. […] After incubation, the percentage of HLA-DR-bound radioactivity is determined by capturing HLA-DR/peptide complexes on Optiplates (Packard Instruments, Meriden, Conn.) coated with the LB3.1 antibody and determining bound counts per minute using the TopCount microscintillation counter (Packard Instruments).

[3] = target: T3, purified HLA DRB1*0404 (Homo sapiens, UniProt P01903+P01911, A100R/A169T/F76Y/I96L/K127E/L162R/M171V/N62H/P40V/Q125Y/R42H/S133A/S149N/S66Y/V209L/W38E); experiment: HLA-DR radioligand binding inhibition assay, DRB1*0404; details: IC50 nM purified HLA DRB1 *0404, purified HLA DRB1*0404
T3 construct: purified from EBV transformed homozygous cell lines or single MHC allele transfected 721.221, C1R, or fibroblast lines; made in house
Outline: as §1

[4] = target: T4, purified HLA DRB1*1101 (Homo sapiens, UniProt P01903+P01911, A100R/A169T/A87E/I96F/K41T/L162R/M171V/P40S/Q125H/Q178H/Q39Y/Q99D/R42S/S66Y/T262R/V115G/W38E); experiment: HLA-DR radioligand binding inhibition assay, DRB1*1101; details: IC50 nM purified HLA DRB1 *1101, purified HLA DRB1*1101
T4 construct: purified from EBV transformed homozygous cell lines or single MHC allele transfected 721.221, C1R, or fibroblast lines; made in house
T4 sequence (P01903 26-254, other chains not shown): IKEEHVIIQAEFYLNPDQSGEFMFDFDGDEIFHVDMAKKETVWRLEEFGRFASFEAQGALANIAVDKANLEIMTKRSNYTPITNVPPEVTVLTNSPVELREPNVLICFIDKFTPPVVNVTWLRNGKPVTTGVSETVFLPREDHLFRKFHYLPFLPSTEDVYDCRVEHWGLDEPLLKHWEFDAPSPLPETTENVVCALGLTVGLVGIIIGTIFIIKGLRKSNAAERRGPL
Outline: as §1

[5] = target: T5, purified HLA DRB1*0401 (Homo sapiens, UniProt P01903+P01911, A100K/A169T/F76Y/I96L/K127E/L162R/M171V/N62H/P40V/Q125Y/R42H/S133A/S149N/S66Y/V115G/V209L/W38E); experiment: HLA-DR radioligand binding inhibition assay, DRB1*0401; details: IC50 nM purified HLA DRB1 *0401, purified HLA DRB1*0401
T5 construct: purified from EBV transformed homozygous cell lines or single MHC allele transfected 721.221, C1R, or fibroblast lines; made in house
Outline: as §1

[6] = target: T6, purified HLA DRB1*0701 (Homo sapiens, UniProt P01903+P01911, A100R/A102G/A103Q/D57E/D86V/E43K/F76Y/K127E/L162R/M171V/P40G/Q125H/Q99D/R33Q/R42Y/R54Q/S133A/S66F/T210M/V115G/Y107V/Y59L/Y89S); experiment: HLA-DR radioligand binding inhibition assay, DRB1*0701; details: IC50 nM purified HLA DRB1 *0701, purified HLA DRB1*0701
T6 construct: purified from EBV transformed homozygous cell lines or single MHC allele transfected 721.221, C1R, or fibroblast lines; made in house
Outline: as §1

[7] = target: T7, purified HLA DRB1*0301 (Homo sapiens, UniProt P01903+P01911, A100K/A102G/A103R/A169T/F55Y/I96L/K41T/L162R/M171V/P40S/Q125H/Q178H/Q39Y/R42S/S66N/T106N/T262R/W38E/Y61H); experiment: HLA-DR radioligand binding inhibition assay, DRB1*0301; details: IC50 nM purified HLA DRB1 *0301, purified HLA DRB1*0301
T7 construct: purified from EBV transformed homozygous cell lines or single MHC allele transfected 721.221, C1R, or fibroblast lines; made in house
Experimental: as §2, §3, §4

[8] = target: T8, purified HLA DRB5*0101 (Homo sapiens, UniProt P01903+Q30154); experiment: HLA-DR radioligand binding inhibition assay, DRB5*0101; details: IC50 nM purified HLA DRB5 *0101, purified HLA DRB5*0101
T8 construct: purified from EBV transformed homozygous cell lines or single MHC allele transfected 721.221, C1R, or fibroblast lines; made in house
Outline: as §1

[9] = target: T9, purified HLA DRB1*0405 (Homo sapiens, UniProt P01903+P01911, A100R/A169T/D86S/F76Y/I96L/K127E/L162R/M171V/N62H/P40V/Q125Y/R42H/S133A/S149N/S66Y/V115G/V209L/W38E); experiment: HLA-DR radioligand binding inhibition assay, DRB1*0405; details: IC50 nM purified HLA DRB1 *0405, purified HLA DRB1*0405
T9 construct: purified from EBV transformed homozygous cell lines or single MHC allele transfected 721.221, C1R, or fibroblast lines; made in house
Outline: as §1

[10] = target: T10, purified HLA DRB1*0802 (Homo sapiens, UniProt P01903+P01911, A100R/A103L/A169T/F76Y/H45Y/I96F/K41T/L162R/M171V/P40S/Q125H/Q178H/Q39Y/Q99D/R218S/R42G/S66Y/V115G/W38E); experiment: HLA-DR radioligand binding inhibition assay, DRB1*0802; details: IC50 nM purified HLA DRB1 *0802, purified HLA DRB1*0802
T10 construct: purified from EBV transformed homozygous cell lines or single MHC allele transfected 721.221, C1R, or fibroblast lines; made in house
Experimental: as §2
as §3, with “n-octylglucoside. […] The pH was reduced to 8.0 and the eluates were concentrated by centrifugation in Centriprep 30 concentrators at 2000 rpm (Amicon, Beverly, Mass.).” for “n-octylglucoside.”
as §4, with “Instruments). […] Competitor peptides are tested in 2-4 complete, independent experiments, at concentrations ranging from […].” for “Instruments).”

[11] = target: T11, purified HLA DRB1*1201 (Homo sapiens, UniProt P01903+P01911, A100R/A169T/D57E/D86V/F55L/H45Y/K41T/L162R/M171V/P40S/Q125H/Q178H/Q39Y/Q99D/R42G/S66L/T262R/V114A/V67L/W38E/Y59H/Y61H/Y89S); experiment: HLA-DR radioligand binding inhibition assay, DRB1*1201
T11 construct: purified from EBV transformed homozygous cell lines or single MHC allele transfected 721.221, C1R, or fibroblast lines; made in house
Experimental: as §2
as §3, with “n-octylglucoside. […] The pH was reduced to 8.0 and the eluates were concentrated by centrifugation in Centriprep 30 concentrators at 2000 rpm (Amicon, Beverly, Mass.).” for “n-octylglucoside.”
as §4, with “Instruments). […] Competitor peptides are tested in 2-4 complete, independent experiments, at concentrations ranging from […].” for “Instruments).”

[12] = target: T12, purified HLA DRB4*0101 (Homo sapiens, UniProt P01903+P13762, G164S); experiment: HLA-DR radioligand binding inhibition assay, DRB4*0101; details: IC50 nM purified HLA DRB4 *0101, purified HLA DRB4*0101
T12 construct: purified from EBV transformed homozygous cell lines or single MHC allele transfected 721.221, C1R, or fibroblast lines; made in house
Outline: as §1

[13] = target: T13, purified HLA DRB1*1501 (Homo sapiens, UniProt P01903+P01911); experiment: HLA-DR radioligand binding inhibition assay, DRB1*1501
T13 construct: purified from EBV transformed homozygous cell lines or single MHC allele transfected 721.221, C1R, or fibroblast lines; made in house
Outline: as §1

[14] = target: T14, purified HLA DRB1*1302 (Homo sapiens, UniProt P01903+P01911, A100E/A169T/K41T/L162R/M171V/P40S/Q125H/Q178H/Q39Y/Q99D/R42S/S66N/T262R/V115G/W38E/Y61H); experiment: HLA-DR radioligand binding inhibition assay, DRB1*1302
T14 construct: purified from EBV transformed homozygous cell lines or single MHC allele transfected 721.221, C1R, or fibroblast lines; made in house
Outline: as §1

[15] = target: T15, purified HLA DRB3*0101 (Homo sapiens, UniProt P01903+P79483); experiment: HLA-DR radioligand binding inhibition assay, DRB3*0101; details: IC50 nM purified HLA DRB3 *0101, purified HLA DRB3*0101
T15 construct: purified from EBV transformed homozygous cell lines or single MHC allele transfected 721.221, C1R, or fibroblast lines; made in house
Experimental: as §2
as §3, with “n-octylglucoside. […] The pH was reduced to 8.0 and the eluates were concentrated by centrifugation in Centriprep 30 concentrators at 2000 rpm (Amicon, Beverly, Mass.).” for “n-octylglucoside.”
as §4, with “Instruments). […] Competitor peptides are tested in 2-4 complete, independent experiments, at concentrations ranging from […].” for “Instruments).”

| SMILES | IC50 [1] [nM] | IC50 [2] [nM] | IC50 [3] [nM] | IC50 [4] [nM] | IC50 [5] [nM] | IC50 [6] [nM] | IC50 [7] [nM] | IC50 [8] [nM] | IC50 [9] [nM] | IC50 [10] [nM] | IC50 [11] [nM] | IC50 [12] [nM] | IC50 [13] [nM] | IC50 [14] [nM] | IC50 [15] [nM] |
| --- | --- | --- | --- | --- | --- | --- | --- | --- | --- | --- | --- | --- | --- | --- | --- |
| CC[C@H](C)[C@H](NC(=O)[C@@H](NC(=O)[C@@H]1CCCN1C(=O)[C@H](C)N)[C@@H](C)O)C(=O)N[C@@H](CCCNC(=N)N)C(=O)NCC(=O)N[C@@H](CC(=O)O)C(=O)N1CCC[C@H]1C(=O)N[C@@H](CCC(=O)O)C(=O)N[C@@H](CS)C(=O)N[C@@H](Cc1c[nH]cn1)C(=O)N[C@@H](CC(C)C)C(=O)N[C@@H](Cc1ccccc1)C(=O)N[C@@H](Cc1ccc(O)cc1)C(=O)N[C@@H](CC(N)=O)C(=O)O [Peptide 9019.0022] | 4030 | > 20000 | 2910 | > 20000 | 1640 | 16800 | 31 | > 20000 | > 20000 | > 20000 | 16900 | – | – | – | – |
| CC(C)C[C@H](NC(=O)[C@H](Cc1c[nH]cn1)NC(=O)[C@@H](N)CS)C(=O)N[C@@H](Cc1ccccc1)C(=O)N[C@@H](Cc1ccc(O)cc1)C(=O)N[C@@H](CC(N)=O)C(=O)N[C@@H](CCC(=O)O)C(=O)N[C@@H](CCC(N)=O)C(=O)N[C@@H](CCC(N)=O)C(=O)N[C@@H](CCC(=O)O)C(=O)N[C@@H](C)C(=O)N[C@@H](CCCNC(=N)N)C(=O)NCC(=O)N[C@H](C(=O)N[C@@H](Cc1c[nH]cn1)C(=O)O)C(C)C [Peptide 9019.0023] | – | > 20000 | – | > 20000 | – | > 20000 | – | > 20000 | > 20000 | > 20000 | – | 5310 | > 20000 | – | – |
| CC[C@H](C)[C@H](NC(=O)[C@H](CS)NC(=O)[C@H](CC(C)C)NC(=O)[C@@H](N)CCCCN)C(=O)N[C@@H](Cc1ccc(O)cc1)C(=O)N[C@H](C(=O)N[C@@H](CC(=O)O)C(=O)N[C@@H](CC(N)=O)C(=O)N[C@@H](CO)C(=O)N[C@H](C(=O)N[C@@H](CCCNC(=N)N)C(=O)N1CCC[C@H]1C(=O)N[C@@H](CCC(=O)O)C(=O)N[C@@H](CCC(=O)O)C(=O)N[C@@H](CC(C)C)C(=O)O)[C@@H](C)CC)[C@@H](C)O [Peptide 9019.0159] | – | 15900 | – | > 20000 | 95 | 1100 | 64 | 4620 | 3170 | – | > 20000 | 33 | 25 | 879 | > 20000 |
